From patent US20080146657A1, “Plant-Origin Alpha3-Adrenoceptor Agonist and Use of the Same” (priority 2003, published 2008)
Where two headings read alike, the source gives them in different places.

How the values were obtained:
[1] = test system: 3T3-L1 adipocytes; assay: Measurement of lipolytic effect using 3T3-L1 cells (glycerol release); type: cell-based, mouse; conditions: 5 μM to 500 μM; 3 days incubation
Description: 3T3-L1 cells which are adipocyte precursor cells derived from mice (purchased from Human Science Research Resource Bank) were added into a 96-well plate at 1×10^4 cells/well, and then cultured in Dulbecco's modified Eagle medium (D-MEM, GIBCO) supplemented with 10% fetal calf serum (FCS) at 37° C. in a 5% CO2 atmosphere. To induce differentiation to adipocytes, right before the cells reaches confluency, the medium was exchanged with 10% FCS-containing D-MEM supplemented with 0.5 mM 3-isobutyl-1-methylxanthine, 2×10^−7 M dexamethasone, and 0.8 μM insulin. Two days later, the medium was exchanged with 10% FCS-containing D-MEM supplemented only with 0.8 μM insulin. […] The culture medium of the cells cultured in the 96-well plate were removed by aspiration, 10% FCS-containing D-MEM containing the test substance was added at 100 μL/well, and after incubation for 3 days, 80 μL of the culture medium was collected from each well, and the amount of glycerol in the culture medium was determined using “F-Kit Glycerol” (Boehringer Mannheim). […] To a test medium, 0.5 to 500 μg/mL of dried lotus leaf extract, 0.5 to 500 μM of quercetin, and 10^−8 M to 10^−5 M of isoproterenol as a positive control were added individually, and the amount of glycerol released into the medium due to degradation of the fat stored in 3T3-L1 adipocytes was measured.

[2] = cited from earlier work
[3] = molecular target: T1, human β3-adrenergic receptor (Homo sapiens, UniProt P13945); assay: Measurement of human β3-adrenergic receptor agonist activity (intracellular cAMP, recombinant CHO-K1 cells); type: cell-based
T1 construct: expressed in transfected cells; vector pTracer-EF A
T1 sequence (P13945 1-402 limits assumed): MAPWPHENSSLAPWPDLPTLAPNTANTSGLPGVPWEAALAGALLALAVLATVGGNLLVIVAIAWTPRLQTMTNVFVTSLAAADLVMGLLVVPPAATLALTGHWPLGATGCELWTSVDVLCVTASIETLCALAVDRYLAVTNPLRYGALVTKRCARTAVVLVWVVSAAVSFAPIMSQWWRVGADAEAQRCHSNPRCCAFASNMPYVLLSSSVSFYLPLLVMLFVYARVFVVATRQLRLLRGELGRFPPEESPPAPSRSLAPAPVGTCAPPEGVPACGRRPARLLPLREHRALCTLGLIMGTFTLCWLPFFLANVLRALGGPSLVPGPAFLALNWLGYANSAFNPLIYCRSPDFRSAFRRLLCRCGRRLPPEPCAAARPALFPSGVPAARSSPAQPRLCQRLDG
Description: The obtained recombinant cells were cultured in a 96-well microplate until the cell density reaches 100%. After the medium was removed, the cells were washed once with Dulbecco's modified phosphate buffer solution (hereinafter, abbreviated as PBS; TaKaRa), and then 100 μL of an assay buffer [DMEM, 10% FCS, 20 mM HEPES (pH 7.2), 0.1 mM isobutylmethylxanthine] containing 10 μM isoproterenol was added. As a control, the assay buffer was used without addition of isoproterenol. After incubation at 37° C. for 20 minutes, the cells were washed once with PBS, and then the amount of intracellular cAMP were quantified using a cAMP EIA Kit (Amersham Bioscience). […] The selected recombinant cells were further cultured. […]
The human β3-adrenergic receptor-expressing recombinant 6H4-2d3 was cultured in a 96-well microplate in DMEM containing 10% FCS and 500 μg/mL Zeocin at 37° C. in a 5% CO2 atmosphere. […] The cells were washed once with PBS, and an assay buffer [DMEM, 10% FCS, 20 mM HEPES (pH 7.2), 0.1 mM isobutylmethylxanthine] supplemented with the test substance to be measured was added at 100 μL/well. After incubation at 37° C. for 10 minutes, the cells were washed once with PBS, and then their intracellular cAMP levels were quantified using a cAMP EIA Kit (Amersham Bioscience). […] The same test substance was measured three times and the mean and standard deviation of the measurements were used. […]

[4] = test system: rat β-adrenergic receptor; conditions: rat adipocytes treated with quercetin; cited from earlier work

accumulation of cAMP ([3]; 15 μM, 30 µM, 60 μM, only in CHO-K1 cells expressing the receptor, not in non-expressing CHO-K1) | Structure (SMILES) | Lipolysis (glycerol released into the medium) [1] | Solubility ([2]; boiling water) | Solubility ([2]; cold alcohol-ether) | Solubility ([2]; cold water) | Solubility ([2]; hot alcohol-glacial acetic acid) | cAMP accumulation [4] | β3-adrenergic receptor agonist activity (cAMP) ([3]; 1 μM, 10 μM, 100 μM, 1000 μM, compared with quercetin)
significant accumulation of cAMP | O=c1c(O)c(-c2ccc(O)c(O)c2)oc2cc(O)cc(O)c12 [quercetin, 3,3′,4′,5,7-pentahydroxyflavone] | significantly promoted | slightly soluble | poorly soluble | insoluble | readily soluble | cAMP accumulates | 
 | O=C(O)[C@H]1O[C@@H](Oc2c(-c3ccc(O)c(O)c3)oc3cc(O)cc(O)c3c2=O)[C@H](O)[C@@H](O)[C@@H]1O [Q3GA, quercetin 3-O-β-D-glucuronide] |  |  |  |  |  |  | β3-adrenergic receptor agonist activity similar to that of quercetin
